# Measurements: the NIST ThermoML archive (doi:10.1016/j.jct.2005.02.003)
# Numbers after ± are expanded uncertainties.
# Test: Molar enthalpy of transition or fusion
# Settings: Crystal; Adiabatic calorimetry
compound,measurement,value
CC(C)COC(C)(C)C [isobutyl tert-butyl ether],Molar enthalpy of transition or fusion,2.067 ± 0.012 kcal/mol
